Laboratory results taken from patent publication US12016860B2, “Combination therapies with Cbl-b inhibitor compounds” (Nurix Therapeutics, Inc., priority 2021, dated 2024).

Experiments:
CT26 tumors [1] = assay: CT26 model, combination with anti-PD-1 antibody; type: in vivo, mice
Description: This example provides assays and results for treating tumor models in vivo with combinations of Cbl-b compounds and anti-PD1 antibodies as described herein. The antibody is a mouse anti-PD1 RMP1-14 antibody, useful in mouse in vivo assays as model for administration of human PD-1 axis antagonists for treatment of human cancer.
FIG. 6 provides results in three tumor models. […] Beginning on Day 10, tumor volumes were measured twice weekly.

CT26 tumors [2] = assay: nCounter Mouse PanCancer Immune Profiling of CT26 tumors from treated mice; type: in vivo
From the text: In this example, the gene expression changes induced in tumors from mice treated with compound 23 studies were investigated. To perform this assessment, the nCounter PanCancer Immune Profiling Panel was used, which is a multiplexed gene expression panel developed by NanoString Technologies that measures expression of 770 immune and cancer related genes (Eastel et al., 2019, Expert Review of Molecular Diagnostics, 19(7):591-598). This technology is a unique gene expression tool that covers many important features of the immune response in the tumor microenvironment and was used to facilitate the understanding of immune related changes in tumors treated with compound 23.
In FIG. 4A, CT26 tumors were harvested after 4 doses and after 19 doses of compound 23 or vehicle and gene expression was directly measured using the nCounter Mouse PanCancer Immune Profiling Panel. Analysis was performed using the nSolver 4.0 and the nCounter Advanced Analysis software comparing gene expression in compound 23 to vehicle treated tumors. […] Statistical significance of differences in mean cell type scores between compound 23 and vehicle treated groups was evaluated using Mann-Whitney test (*P≤0.05, **P≤0.01, and ***P≤0.001).
(§1) In FIG. 4B, CT26 tumors were harvested after 4 treatment doses and gene expression was directly measured using the nCounter Mouse PanCancer Immune Profiling Panel. Analysis was performed using the nSolver 4.0 and the nCounter Advanced Analysis software comparing gene expression in compound 23 to vehicle treated tumors. As indicated in the titles above each panel, scatter plots of individual Pathway Signature Scores of vehicle and compound 23 treated tumors are shown. Statistical significance of differences in Pathway Signature Scores between compound 23 and vehicle treated groups was evaluated using Mann-Whitney test (*P≤0.05, **P≤0.01, and ***P≤0.001).
as §1, with “FIG. 4C,” for “FIG. 4B,”, “after 19” for “after 4”

[3] = test system: BT549 (BRCA wild type) cells; assay: Caspase 3/7 apoptosis Incucyte assay with olaparib, BT549; type: cell-based; conditions: 1 μM compound 23, 0.05 μM olaparib, vs 0.05% DMSO, combination also vs single agents p<0.0001
Description: BT549 (BRCA wild type) (A) and DoTc 4510 (BRCA2 mutated) (B) cells were seeded in duplicate into tissue culture treated black-sided, clear-bottom 96-well plates at 5,000^cells/well and allowed to adhere and establish for 24 h. Cells were treated with indicated concentrations of DMSO, compound 23, or Olaparib (FIGS. 13A and 13B) either alone or in combination and were labelled with 1× Essen Bioscience IncuCyte® Caspase-3/7 Green Reagent (final concentration 5 μM). Treated plates were imaged every 2 hours for 72 hours with the IncuCyte® S3 Live-Cell Analysis System. At each timepoint, one image per well was taken in both brightfield and FITC channels on the IncuCyte® S3 Live-Cell Analysis System. Images were analyzed for number of green objects per mm^2 using the IncuCyte S3 v2017A software.
Using a caspase 3/7 apoptosis Incucyte assay, the effect of compound 23, PARPi and the combination of compound 23, and PARPi on tumor cell apoptosis was assessed in both BRCA wild type and mutated tumor cell lines in vitro.

CT26 tumors [4] = assay: CT26 tumor volume in mice, single agent oral dosing; type: in vivo; conditions: oral administration in mice; colon carcinoma model CT26
Description: Mice bearing tumors on their left and right flanks were treated from Day 7 to Day 32 with oral compound 23 at 10 mg/kg (blue circles) or 30 mg/kg (red circles) or vehicle (black squares). Volumes at Day 25 are indicated. Statistics were calculated with one-way ANOVA and Dunn's multiple comparisons test **P≤0.01.

4T1 tumors = assay: 4T1 metastatic breast carcinoma survival model with primary tumor resection; type: in vivo, mice
From the text: Another in vivo study evaluated the ability of compound 23 treatment, started before the primary tumor resection, to eradicate 4T1 breast carcinoma metastatic disease. The 4T1 triple negative mammary carcinoma is a transplantable tumor cell line that is highly tumorigenic and invasive and, unlike most tumor models, spontaneously metastasizes from a primary tumor growing in the mammary gland to multiple distant sites including lymph nodes, blood, liver, lung, brain, and bone. Tumor cells are easily transplanted into the mammary glands so that the primary tumor grows in the anatomically relevant site. The progressive spread of 4T1 metastases to other organs is very similar to that of human mammary cancer. Animals die from disseminated metastatic disease regardless of resection of the primary tumor (Pulaski et al., 2000, Current Protocols in Immunology 39(1):20.2.1-20.2.16). […] Beginning on Day 7, tumor volumes were measured twice weekly until they reached a mean tumor volume of 145 mm^3 when the primary tumors were resected on Day 14 and 15 (dotted line). Median survival time were calculated for each group and body weights were monitored until the end of the study on Day 140. Body weights were measured twice weekly then once weekly starting Day 47. […] Statistical significance of differences in conditional survival between groups was evaluated using the Log-rank (Mantel-Cox) test. […] Median survival is reported as undefined for the compound 23 group, as survival exceeds 50% at Day 140.

orthotopic 4T1 tumors = assay: Flow cytometry of tumor and blood CD8+ T-cells in 4T1-tumor-bearing mice; type: in vivo; conditions: Day 28
Raji cells = assay: Raji human non-Hodgkin's lymphoma model in SCID mice, combination with rituximab
Description: Female CB17 mice with severe combined immunodeficiency (SCID) were intravenously (IV) injected in the tail vein with Raji cells on Day 0 and treated from Day 5 to Day 37 by administration of either: vehicle (0.5% methylcellulose, 0.2% Polysorbate 80 in deionized water+1 eq HCl) daily, orally (PO) or compound 23 at 30 mg/kg daily, PO. Anti-CD20 antibody (rituximab) at 20 mg/kg was intraperitoneally (IP) administered on Day 5, 10, and 15, either alone or in combination with compound 23 at 30 mg/kg daily, PO.

[5] = blood of 4T1-tumor-bearing mice

Compound: C[C@H]1CCCN(Cc2cc3c(c(C(F)(F)F)c2)CN(c2cccc([C@]4(c5nncn5C)C[C@@H](C)C4)c2)C3=O)C1 [compound 23]
- interaction with PD-1 antibody blockade (CT26 tumors [1]): synergizes
- TGI (CT26 tumors [1]; compared to vehicle controls, compound 23 30 mg/kg daily PO, anti-PD-1 10 mg/kg twice weekly IP): 62%
- tumor volume compared to vehicle controls (CT26 tumors [1]; compound 23 30 mg/kg daily PO): significantly reduced tumor volume
- median survival time (CT26 tumors [1]; compound 23 30 mg/kg daily PO, anti-PD-1 10 mg/kg twice weekly IP, controls 27 days): 38 days
- T-cell, B cell, NK cell and adaptive immune function pathway scores (CT26 tumors [2]; after 4 doses): not significant
- gene expression in innate immune signaling pathways (dendritic cell function, macrophage function, chemokine receptors and pathways) (CT26 tumors [2]; after 4 doses): significant gene expression changes
- cytotoxic cell infiltration score (CT26 tumors [2]; after 4 doses, 30 mg/kg daily PO, vs vehicle, P=0.1061): clear trend of increased infiltration
- infiltration of tumor infiltrating lymphocytes (TIL) score (CT26 tumors [2]; after 4 doses, 30 mg/kg daily PO, vs vehicle, P=0.6679): clear trend of increased infiltration
- T-cell infiltration score (CT26 tumors [2]; after 4 doses, 30 mg/kg daily PO, vs vehicle, P=0.7551): clear trend of increased infiltration
- immune related pathway scores (CT26 tumors [2]; after 19 doses): significantly enhanced function
- cytotoxic cell infiltration score (CT26 tumors [2]; after 19 doses PO, vs vehicle, P=0.0002): significant increases
- TIL infiltration score (CT26 tumors [2]; after 19 doses PO, vs vehicle, P=0.0044): significant increases
- T-cell infiltration score (CT26 tumors [2]; after 19 doses PO, vs vehicle, P=0.0098): significant increases
- tumor cell apoptosis (caspase 3/7) [3]: did not undergo a significant increase in apoptosis
- anti-tumor activity (CT26 tumors [4]): significant anti-tumor activity
- median survival time compared to vehicle control (4T1 tumors; 30 mg/kg daily PO Day 8 to 46, primary tumors resected Day 14 and 15): significantly increased
- median survival (4T1 tumors; 30 mg/kg daily PO, study end Day 140): undefined
- anti-tumor activity (4T1 tumors; oral administration in mice, metastatic triple negative breast tumor model 4T1): significant anti-tumor activity
- frequency of tumor gp70 antigen-specific CD8+ T-cells (AH1 Dextramer+CD8+) (orthotopic 4T1 tumors; 4T1 tumors, 30 mg/kg daily PO): increased
- frequency of tumor gp70 antigen-specific CD8+ T-cells with exhaustion phenotype (PD-1+ LAG3+) (orthotopic 4T1 tumors; 4T1 tumors, 30 mg/kg daily PO): decreased
- frequency of circulating CD8+ T-cells with activated phenotype (PD-1+) (orthotopic 4T1 tumors; [5]): increased
- frequency of circulating CD8+ T-cells with memory phenotype (CD44+CD27+CD127+) (orthotopic 4T1 tumors; [5]): increased
- survival compared to untreated mice (Raji cells; compound 23 30 mg/kg daily PO, rituximab 20 mg/kg IP Day 5, 10, 15, p<0.0001): significantly higher
- survival compared to mice treated with the combination of compound 23 and rituximab (Raji cells; p<0.0001): significantly lower
